Measurements from patent US7297714B2, “Inhibitors of cathepsin S” (IRM LLC, priority 2003, dated 2007).

How the values were obtained:
Format in all cases: biochemical
[1] = target: Cathepsin S (Homo sapiens, UniProt P25774); assay: Cathepsin S inhibition assay (fluorogenic peptide substrate); conditions: Cathepsin S inhibition constant; pH5.5; read-out: Ki Cat. S
Text: “Inhibition constant”, Ki, is the dissociation constant of the enzyme-inhibitor complex, or the reciprocal of the binding affinity of the inhibitor to the enzyme. For classical inhibition the value of Ki is much greater than the enzyme concentration and the Ki can be measured by monitoring the rate of reaction for a competitive substrate at multiple inhibitor concentrations. The inhibited rates are then fit by nonlinear regression to the following equation: […]
The assumption being made for the classical inhibition described above is that the free inhibitor concentration is equal to the total inhibitor concentration. For inhibitors that have Ki's that are approximately equal to the enzyme concentration [E], the assumption that the free inhibitor concentration is equal to the total inhibitor concentration is no longer valid and an alternative equation has to be fit for determination of the apparent inhibition constant, Ki^app using described methods (Kuzmic, P., K. C. Elrod, et al., Anal Biochem 2000, 286(1), 45-50):
The optimal substrate for cathepsin S, acetyl-histidine-proline-valine-lysine-amino carbamoyl coumarin, was identified from screening a combinatorial library of fluorogenic peptide substrates (Harris, J. L., B. J. Backes, et al., Proc Natl Acad Sci U S A 2000, 97(14), 7754-9). Kinetic measurements are performed in a total reaction volume of 30 μl in 384-well microtiter plates. Cathepsin S, at a final concentration of 0.3-3 nM (active site), is incubated with the compounds at twelve varying concentrations in a buffer containing 100 mM NaAc (pH5.5), 1 mM EDTA, 100 mM NaCl, 0.01% Brij-35 for 20 minutes at room temperature. Control reactions in the absence of inhibitor are performed in replicates of 24. The reactions are initiated by adding the substrate, acetyl-histidine-proline-valine-lysine-amino carbamoyl coumarin, to a final concentration of 50 μM. The rate of substrate hydrolysis is measured by monitoring the increase in fluorescence at an excitation wavelength of 380 nm and an emission wavelength of 450 nm that results from cleavage of the aniline bond in the substrate by the enzyme. The apparent inhibition constants for the compounds are determined from the enzyme progress curves (Kuzmic, P., K. C. Elrod, et al., Anal Biochem 2000, 286(1), 45-50) and are then used to calculate the inhibition constants for competitive inhibitors.

[2] = target: T1, Caspase 1 (Homo sapiens, UniProt P29466); assay: Inhibition Assay for Caspase 1; conditions: Caspase-1 inhibition constant; pH 7.4; read-out: Ki Cas-1
T1 sequence (P29466 120-297 limits assumed): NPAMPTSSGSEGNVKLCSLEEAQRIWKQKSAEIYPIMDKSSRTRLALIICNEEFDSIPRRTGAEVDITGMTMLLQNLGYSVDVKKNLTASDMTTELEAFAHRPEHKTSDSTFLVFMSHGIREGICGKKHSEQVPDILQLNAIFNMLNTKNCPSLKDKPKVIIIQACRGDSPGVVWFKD
T1 sequence (P29466 317-404 limits assumed): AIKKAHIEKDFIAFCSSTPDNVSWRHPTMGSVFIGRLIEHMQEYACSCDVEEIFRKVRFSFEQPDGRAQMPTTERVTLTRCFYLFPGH
Description: (§1) The widely used substrate for caspase 1, acetyl-tryptophan-glutamate-histidine-spartic acid-amino carbamoyl coumarin, was used. Kinetic measurements are performed in a total reaction volume of 30 μl in 384-well microtiter plates. Caspase 1, at a final concentration of 0.2-1 nM (active site), is incubated with the compounds at twelve varying concentrations in a buffer containing 20 mM Hepes (pH 7.4), 1 mM EDTA, 100 mM NaCl, 0.1% CHAPS, 10% sucrose, 10 mM DTT for 20 minutes at room temperature. Control reactions in the absence of inhibitor are performed in replicates of 12. The reactions are initiated by adding the substrate to a final concentration of 4 μM. The rate of substrate hydrolysis is measured by monitoring the increase in fluorescence at an excitation wavelength of 380 nm and an emission wavelength of 450 nm that results from cleavage of the aniline bond in the substrate by the enzyme. The apparent inhibition constants for the compounds are determined from the enzyme progress curves (Kuzmic, Elrod et al. 2000) and are then used to calculate the inhibition constants for competitive inhibitors (Km=8 μM).

[3] = target: T2, Caspase 3 (Homo sapiens, UniProt P42574); assay: Inhibition Assay for Caspase 3; conditions: Caspase-3 inhibition constant; pH7.4; read-out: Ki Cas-3
T2 sequence (P42574 29-175 limits assumed): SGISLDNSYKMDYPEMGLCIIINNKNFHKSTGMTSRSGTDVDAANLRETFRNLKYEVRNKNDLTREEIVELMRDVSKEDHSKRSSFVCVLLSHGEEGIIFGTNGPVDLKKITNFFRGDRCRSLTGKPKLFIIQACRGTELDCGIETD
T2 sequence (P42574 176-277 limits assumed): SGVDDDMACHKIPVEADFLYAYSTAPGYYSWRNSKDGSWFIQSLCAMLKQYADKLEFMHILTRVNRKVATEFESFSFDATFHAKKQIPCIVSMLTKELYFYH
Description: as §1, with “for caspase 3, acetyl-aspartate-glutamate-valine-aspartic acid-amino carbamoyl” for “for caspase 1, acetyl-tryptophan-glutamate-histidine-spartic acid-amino carbamoyl”, “plates. Caspase 3, at a” for “plates. Caspase 1, at a”, “mM Hepes (pH7.4), 1 mM” for “mM Hepes (pH 7.4), 1 mM”, “concentration of 2 μM. The” for “concentration of 4 μM. The”, “competitive inhibitors (Km=9.71 μM).” for “competitive inhibitors (Km=8 μM).”

Sequence of Cathepsin S (P25774 115-331, species assumed): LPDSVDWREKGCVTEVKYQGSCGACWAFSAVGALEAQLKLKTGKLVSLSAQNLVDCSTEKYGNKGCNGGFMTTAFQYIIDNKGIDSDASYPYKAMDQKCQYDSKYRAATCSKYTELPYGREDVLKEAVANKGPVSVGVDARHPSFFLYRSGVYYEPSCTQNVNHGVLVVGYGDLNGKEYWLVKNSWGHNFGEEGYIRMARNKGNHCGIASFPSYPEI

SMILES | Ki [1] | Ki [2] | Ki [3]
O=C1C[C@H](NC(=O)[C@H](CC2CCCC2)NC(=O)c2ccc(-c3cccc(F)c3)o2)C(O)O1 (stereo partly drawn) [Example 1, (3S)-(3-Cyclopentyl-(2S)-{[5-(3-fluoro-phenyl)-furan-2-carbonyl]-amino}-propionylamino)-4-oxo-butyric acid] | < 0.1 µM | > 1 µM | > 1 µM
O=C1C[C@H](NC(=O)[C@H](CC2CCCC2)NC(=O)N2CCOCC2)C(O)O1 (stereo partly drawn) [Example 2, (3S)-{3-Cyclopentyl-(2S)-[(morpholine-4-carbonyl)-amino]-propionylamino}-4-oxo-butyric acid] | < 0.1 µM | > 100 µM | > 10 µM
O=C1C[C@H](NC(=O)[C@H](CC2CCCCC2)OC(=O)N2CCOCC2)C(O)O1 (stereo partly drawn) [Example 3, (3S)-{3-cyclohexyl-(2S)-(morpholine-4-carbonyloxy)-propionylamino}-4-oxo-butyric acid] | < 0.1 µM | > 10 µM | > 10 µM
O=C[C@H](CC(=O)O)NC(=O)[C@@H](CC(=O)N1CCOCC1)CC1CCCC1 [Example 4, (3S)-[(2R)-Cyclopentylmethyl-4-morpholin-4-yl-4-oxo-butyrylamino]-4-oxo-butyric acid] | < 0.1 µM | > 10 µM | > 10 µM
O=C1C[C@H](NC(=O)O[C@@H](CC2CCCC2)Cn2cnc3cc(Cl)c(Cl)cc32)C(O)O1 (stereo partly drawn) [Example 5, (3S)-[(1S)-Cyclopentylmethyl-2-(5,6-dichloro-benzoimidazol-1-yl)-ethoxycarbonylamino]-4-oxo-butyric acid] | < 0.1 µM | > 10 µM | > 10 µM
O=C1C[C@H](NC(=O)[C@@H](CC(=O)N2CCOCC2)CC2CCCCC2)C(O)O1 (stereo partly drawn) [Example 6, (3S)-{(2R)-Cyclohexylmethyl-4-morpholin-4-yl-4-oxo-butyrylamino}-4-oxo-butyric acid] | < 0.1 µM | > 100 µM | > 10 µM
O=C1C[C@H](NC(=O)[C@H](CC2CCCCC2)NS(=O)(=O)c2cccc(OC(F)(F)F)c2)C(O)O1 (stereo partly drawn) [Example 7, (3S)-[3-Cyclohexyl-(2S)-(3-trifluoromethoxy-benzenesulfonylamino)-propionylamino]-4-oxo-butyric acid] | < 0.1 µM | > 10 µM | > 10 µM
O=C1C[C@H](NC(=O)[C@H](CC2CCCC2)NS(=O)(=O)c2cccc(OC(F)(F)F)c2)C(O)O1 (stereo partly drawn) [Example 8, (3S)-[3-Cyclopentyl-(2S)-(3-trifluoromethoxy-benzenesulfonylamino)-propionylamino]-4-oxo-butyric acid] | < 0.1 µM | > 100 µM | > 1 µM
CC(C)(C)C[C@H](OC(=O)N[C@H]1CC(=O)OC1O)C(=O)N1CCOCC1 (stereo partly drawn) [Example 9, (3S)-[3,3-Dimethyl-(1S)-(morpholine-4-carbonyl)-butoxycarbonylamino]-4-oxo-butyric acid] | < 0.1 µM | > 100 µM | > 100 µM
O=C1C[C@H](NC(=O)O[C@@H](CC2CCCCC2)C(=O)N2CCOCC2)C(O)O1 (stereo partly drawn) [Example 10, (3S)-[2-cyclohexyl-(1S)-(morpholin-4-carbonyl)-ethoxycarbonylamino]-4-oxo-butyric acid] | < 0.1 µM | > 100 µM | > 100 µM
